Measurements as given in ChEMBL document CHEMBL1201862, “PubChem BioAssay data set” (2004).
Each block holds one compound with its values, some of them ahead of it. Activity calls are given as the source filed them. Cut-off read from the data, not from the text of the source, for most assays here: actives have a measured IC50 and inactives only a lower limit.

Key:
[1] = biological target: T1, Runt-related transcription factor 1/Core-binding factor subunit beta (Homo sapiens, UniProt Q01196+Q13951); experiment: inhibitors of RUNX1 Runt–CBFb-SMMHC binding, primary screen, biochemical, FRET, Cerulean-Runt, Venus-CBFb-SMMHC, uHTS (AID 1434); type: protein assay;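 note: partner is the CBFb-SMMHC leukemia fusion protein rather than wild-type CBFb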
[2] = biological target: T1, Runt-related transcription factor 1/Core-binding factor subunit beta; experiment: inhibitors of RUNX1 Runt–CBFb-SMMHC binding, biochemical, TR-FRET (AID 1438); type: protein assay
[3] = biological target: Troponin, cardiac muscle (Homo sapiens, UniProt P19429+P45379+P63316); experiment: Fluorescence-based biochemical high throughput dose response assay for activators of the calcium sensitivity of cardiac Regulated Thin Filaments (RTF). [Related pubchem assays (depositor defined):AID493008, AID493018, AID504382, AID504383]; type: protein-complex assay
[4] = biological target: T2, CAAX prenyl protease 2 (Saccharomyces cerevisiae S288c, UniProt Q03530); type: biochemical
T2 sequence (Q03530 whole entry): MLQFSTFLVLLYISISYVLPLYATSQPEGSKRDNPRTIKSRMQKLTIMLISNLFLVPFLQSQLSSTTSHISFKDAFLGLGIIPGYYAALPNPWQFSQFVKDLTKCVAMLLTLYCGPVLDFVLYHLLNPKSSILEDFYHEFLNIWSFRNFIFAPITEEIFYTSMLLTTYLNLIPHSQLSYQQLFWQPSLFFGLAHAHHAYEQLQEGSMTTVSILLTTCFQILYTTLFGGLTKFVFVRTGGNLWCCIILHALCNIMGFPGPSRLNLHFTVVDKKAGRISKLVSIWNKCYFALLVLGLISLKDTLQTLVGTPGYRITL

[5] = mammalian cell cytotoxicity, dose response, cytotoxicity control, plate reader, cherry-pick samples (AID 504397); type: functional, cell-based
[6] = biological target: T3, Tyrosine-protein phosphatase non-receptor type 22 (Homo sapiens, UniProt Q9Y2R2); experiment: SAR LYP1 Fluorescent Assay using OMFP substrate for In Vitro dose response studies - Set 3. [Related pubchem assays (depositor defined):AID1779, AID1784, AID2140, AID2686]; type: functional
T3 sequence (Q9Y2R2 whole entry): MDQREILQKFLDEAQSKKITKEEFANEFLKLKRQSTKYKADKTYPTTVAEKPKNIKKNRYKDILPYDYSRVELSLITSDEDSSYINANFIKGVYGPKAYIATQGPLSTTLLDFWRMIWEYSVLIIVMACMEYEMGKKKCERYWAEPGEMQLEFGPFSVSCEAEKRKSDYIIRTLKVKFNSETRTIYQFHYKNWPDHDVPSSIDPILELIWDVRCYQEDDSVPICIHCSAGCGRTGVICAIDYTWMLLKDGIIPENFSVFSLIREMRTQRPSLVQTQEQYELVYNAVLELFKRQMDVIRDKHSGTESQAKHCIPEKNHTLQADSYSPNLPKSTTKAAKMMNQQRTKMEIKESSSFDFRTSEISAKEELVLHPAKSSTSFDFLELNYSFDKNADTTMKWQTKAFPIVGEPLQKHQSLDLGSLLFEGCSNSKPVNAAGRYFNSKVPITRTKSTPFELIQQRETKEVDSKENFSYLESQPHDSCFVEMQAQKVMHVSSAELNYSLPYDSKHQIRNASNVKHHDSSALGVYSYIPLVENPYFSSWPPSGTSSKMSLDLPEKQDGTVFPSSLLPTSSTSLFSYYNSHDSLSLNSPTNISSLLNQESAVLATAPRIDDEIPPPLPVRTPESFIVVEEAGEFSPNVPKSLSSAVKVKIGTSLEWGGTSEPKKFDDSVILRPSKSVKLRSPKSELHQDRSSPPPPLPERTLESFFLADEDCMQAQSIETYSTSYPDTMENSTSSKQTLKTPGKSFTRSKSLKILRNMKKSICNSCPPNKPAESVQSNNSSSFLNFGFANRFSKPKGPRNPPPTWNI

[7] = biological target: T4, Tyrosine-protein phosphatase non-receptor type 7 (Homo sapiens, UniProt P35236); experiment: HePTP (PTPN7) phosphatase inhibitor potency, SAR follow-up, biochemical, set 2 (AID 449736); type: functional
T4 sequence (P35236 whole entry): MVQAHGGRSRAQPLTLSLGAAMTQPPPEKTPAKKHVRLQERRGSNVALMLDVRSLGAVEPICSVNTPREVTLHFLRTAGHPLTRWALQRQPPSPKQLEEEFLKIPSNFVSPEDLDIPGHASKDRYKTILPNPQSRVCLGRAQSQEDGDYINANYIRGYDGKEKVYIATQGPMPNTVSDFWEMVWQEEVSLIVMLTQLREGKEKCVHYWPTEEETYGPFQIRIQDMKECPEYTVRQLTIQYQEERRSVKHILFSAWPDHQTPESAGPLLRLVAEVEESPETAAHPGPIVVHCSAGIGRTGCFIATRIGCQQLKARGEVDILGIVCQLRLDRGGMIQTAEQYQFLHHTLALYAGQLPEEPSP

[8] = biological target: Tyrosine-protein phosphatase non-receptor type 12 (Homo sapiens, UniProt Q05209); experiment: SAR Selectivity Analysis of small molecule inhibitors of PEST using pCAP in a fluorescence assay. [Related pubchem assays (depositor defined):AID1779, AID1784, AID2135]; type: functional
[9] = biological target: T3, Tyrosine-protein phosphatase non-receptor type 22; experiment: SAR LYP1 Fluorescent Assay using pCAP substrate for In Vitro dose response studies - Set 2. [Related pubchem assays (depositor defined):AID1779, AID1784, AID2135, AID449727]; type: functional
[10] = biological target: T3, Tyrosine-protein phosphatase non-receptor type 22; experiment: LYP (PTPN22) phosphatase inhibitor potency, SAR follow-up, biochemical, pCAP fluorogenic substrate, fluorescence, set 3 (AID 449727); type: functional
[11] = biological target: T3, Tyrosine-protein phosphatase non-receptor type 22; experiment: SAR LYP1 Fluorescent Assay using OMFP substrate for In Vitro dose response studies - Set 2. [Related pubchem assays (depositor defined):AID1779, AID1784, AID2140, AID449726, AID488869]; type: functional

Structure (SMILES): N=c1c(C(=O)NCc2ccc(F)cc2)cc2c(=O)n3ccccc3nc2n1Cc1ccco1
IC50 [1]: 3.78 µM (active)
IC50 [2]: 43.5 µM (active)

EC50 [3]: > 71.5 µM (inactive)
Structure (SMILES): O=[n+]1c2c(n([O-])c3ccccc31)CCC2

Structure (SMILES): O=C(Nc1ccc(N2CCOCC2)c(Cl)c1)c1cc2ccccc2o1
AC50 [4]: 3.46 µM (active)
AC50 [5]: 260 µM (active)

IC50 [6]: > 100 µM (inactive)
IC50 [7]: > 100 µM (inactive)
IC50 [8]: > 100 µM (inactive)
IC50 [9]: > 100 µM (inactive)
IC50 [10]: > 100 µM (inactive)
IC50 [11]: > 100 µM (inactive)
Structure (SMILES): COc1ccccc1NS(=O)(=O)c1cccc(C(=O)NN=Cc2ccc(OCC(=O)O)cc2)c1
